Measurements: ChEMBL document CHEMBL3425433, “Discovery of bicyclic pyrazoles as class III histone deacetylase SIRT1 and SIRT2 inhibitors” (Bioorg Med Chem Lett, 2015)
Calls of active or inactive are those of the source. The calls are words filed in the database; no cut-off is given here.

Tests used:
[1] = target: T1, Histone deacetylase 7 (Homo sapiens) (UniProt Q8WUI4); assay: Inhibition of HDAC7 (unknown origin) at 20 uM
T1 sequence (whole entry): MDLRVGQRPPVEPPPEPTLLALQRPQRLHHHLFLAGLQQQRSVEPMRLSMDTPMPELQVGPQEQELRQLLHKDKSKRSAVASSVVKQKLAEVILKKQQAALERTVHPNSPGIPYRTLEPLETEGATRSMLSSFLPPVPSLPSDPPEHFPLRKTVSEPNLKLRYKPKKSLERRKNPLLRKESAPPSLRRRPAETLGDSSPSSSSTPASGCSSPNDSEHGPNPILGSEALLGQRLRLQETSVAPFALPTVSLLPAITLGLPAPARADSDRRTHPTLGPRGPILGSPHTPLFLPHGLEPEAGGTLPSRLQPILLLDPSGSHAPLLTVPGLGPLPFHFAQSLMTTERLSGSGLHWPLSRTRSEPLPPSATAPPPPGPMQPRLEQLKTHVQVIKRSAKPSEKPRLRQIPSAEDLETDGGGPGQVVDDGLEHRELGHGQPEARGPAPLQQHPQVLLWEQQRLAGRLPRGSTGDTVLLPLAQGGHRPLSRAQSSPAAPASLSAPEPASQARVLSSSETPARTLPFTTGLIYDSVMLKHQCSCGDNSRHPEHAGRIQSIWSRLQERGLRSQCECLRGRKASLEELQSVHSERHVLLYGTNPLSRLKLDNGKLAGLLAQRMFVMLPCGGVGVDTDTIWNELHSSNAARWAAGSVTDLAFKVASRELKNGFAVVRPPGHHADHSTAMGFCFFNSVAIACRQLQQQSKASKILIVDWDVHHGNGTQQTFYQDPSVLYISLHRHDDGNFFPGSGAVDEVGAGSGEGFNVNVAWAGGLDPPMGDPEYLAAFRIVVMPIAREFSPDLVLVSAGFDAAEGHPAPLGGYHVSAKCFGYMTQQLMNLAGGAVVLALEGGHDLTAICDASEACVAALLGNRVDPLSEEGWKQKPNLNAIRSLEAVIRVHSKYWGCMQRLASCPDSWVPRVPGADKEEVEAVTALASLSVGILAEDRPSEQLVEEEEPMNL

[2] = target: T2, Protein deacetylase HDAC6 (Homo sapiens, UniProt Q9UBN7); assay: Inhibition of HDAC6 (unknown origin)
T2 sequence (Q9UBN7 whole entry): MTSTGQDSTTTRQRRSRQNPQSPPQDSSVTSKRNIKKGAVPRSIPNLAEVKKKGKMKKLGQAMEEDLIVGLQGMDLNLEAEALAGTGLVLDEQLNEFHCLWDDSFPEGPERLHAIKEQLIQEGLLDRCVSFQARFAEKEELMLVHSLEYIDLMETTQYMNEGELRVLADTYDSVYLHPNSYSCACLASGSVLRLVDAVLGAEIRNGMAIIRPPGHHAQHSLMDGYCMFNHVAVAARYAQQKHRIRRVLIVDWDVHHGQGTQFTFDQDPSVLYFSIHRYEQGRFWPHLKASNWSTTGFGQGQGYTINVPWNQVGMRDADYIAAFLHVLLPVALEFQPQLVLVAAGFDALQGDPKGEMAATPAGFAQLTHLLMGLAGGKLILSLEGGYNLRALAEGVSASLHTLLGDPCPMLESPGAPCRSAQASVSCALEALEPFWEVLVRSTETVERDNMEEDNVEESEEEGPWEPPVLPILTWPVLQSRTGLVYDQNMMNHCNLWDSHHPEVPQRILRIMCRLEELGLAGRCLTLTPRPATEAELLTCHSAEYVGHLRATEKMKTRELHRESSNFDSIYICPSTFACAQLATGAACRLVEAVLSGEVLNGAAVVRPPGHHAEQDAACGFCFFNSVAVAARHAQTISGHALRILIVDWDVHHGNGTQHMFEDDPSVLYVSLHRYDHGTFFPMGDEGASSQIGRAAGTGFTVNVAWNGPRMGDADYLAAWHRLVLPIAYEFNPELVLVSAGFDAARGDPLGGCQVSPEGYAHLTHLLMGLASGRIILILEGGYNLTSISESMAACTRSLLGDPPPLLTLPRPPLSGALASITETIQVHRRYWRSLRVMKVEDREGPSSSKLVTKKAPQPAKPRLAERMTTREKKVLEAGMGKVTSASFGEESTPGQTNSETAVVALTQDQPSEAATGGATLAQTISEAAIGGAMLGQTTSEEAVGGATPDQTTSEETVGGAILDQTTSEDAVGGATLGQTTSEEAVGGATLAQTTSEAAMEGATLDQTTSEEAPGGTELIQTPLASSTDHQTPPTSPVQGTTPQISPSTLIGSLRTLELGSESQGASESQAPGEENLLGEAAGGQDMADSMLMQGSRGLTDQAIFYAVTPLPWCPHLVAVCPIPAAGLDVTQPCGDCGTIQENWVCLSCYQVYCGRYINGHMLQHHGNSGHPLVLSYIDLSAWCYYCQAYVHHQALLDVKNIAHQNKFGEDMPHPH

[3] = target: Histone deacetylase 4 (Homo sapiens) (UniProt P56524); assay: Inhibition of HDAC4 (unknown origin) at 20 uM
Sequence of Histone deacetylase 4 (Homo sapiens) (P56524 whole entry): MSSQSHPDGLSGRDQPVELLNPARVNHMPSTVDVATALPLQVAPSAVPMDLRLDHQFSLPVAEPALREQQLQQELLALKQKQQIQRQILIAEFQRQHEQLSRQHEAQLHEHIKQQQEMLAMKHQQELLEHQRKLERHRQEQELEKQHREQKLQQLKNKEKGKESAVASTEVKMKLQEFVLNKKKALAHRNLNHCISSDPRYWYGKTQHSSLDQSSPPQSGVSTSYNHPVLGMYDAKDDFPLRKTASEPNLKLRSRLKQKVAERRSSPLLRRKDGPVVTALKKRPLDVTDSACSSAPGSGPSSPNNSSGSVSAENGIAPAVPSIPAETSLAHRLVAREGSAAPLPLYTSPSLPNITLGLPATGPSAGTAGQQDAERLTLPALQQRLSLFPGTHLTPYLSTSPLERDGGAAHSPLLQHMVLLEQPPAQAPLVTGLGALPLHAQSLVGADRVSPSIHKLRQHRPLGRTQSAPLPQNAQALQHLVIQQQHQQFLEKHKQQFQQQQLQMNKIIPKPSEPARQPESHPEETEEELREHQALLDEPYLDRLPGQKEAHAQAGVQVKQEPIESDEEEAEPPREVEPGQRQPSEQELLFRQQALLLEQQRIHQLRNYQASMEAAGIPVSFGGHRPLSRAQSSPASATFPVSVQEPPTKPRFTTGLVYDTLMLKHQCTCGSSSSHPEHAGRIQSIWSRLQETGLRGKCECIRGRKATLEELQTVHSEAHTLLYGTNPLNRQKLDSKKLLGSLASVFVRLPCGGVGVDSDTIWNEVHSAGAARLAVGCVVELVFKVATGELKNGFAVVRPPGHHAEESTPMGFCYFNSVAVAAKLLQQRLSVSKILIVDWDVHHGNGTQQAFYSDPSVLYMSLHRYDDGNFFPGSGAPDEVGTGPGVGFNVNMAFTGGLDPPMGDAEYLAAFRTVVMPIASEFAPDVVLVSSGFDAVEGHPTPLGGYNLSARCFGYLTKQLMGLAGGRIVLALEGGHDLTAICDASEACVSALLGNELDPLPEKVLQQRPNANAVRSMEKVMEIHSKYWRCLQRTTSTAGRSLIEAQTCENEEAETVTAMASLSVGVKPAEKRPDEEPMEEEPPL

inhibition [1]: inactive
IC50 [2]: > 10 µM
inhibition [3]: inactive
Structure (SMILES): NC(=O)C1CCCc2c(-c3ccc(Cl)c(Cl)c3)n[nH]c21 (racemic)
